Several values for one entry are separate records, joined by “and”; a condition that tells them apart may be missing. Equal values may be shown once. Read-outs that look alike come from different tables or passages of the source.
Key:
[1] = Transport experiments in CF-loaded zwitterionic EYPC vesicles (CF fluorescence, Hill analysis); format: biochemical; conditions: for cargo transport in CF-loaded vesicles (qualitative): LUVs loaded with CF, added cargo; for onset for transport activity (carrier concentration): vesicles, Fig. 4
Experimental: The dry film was rehydrated with 1 mL buffer (50 mM CF, 10 mM Hepes, pH 7.4 or 50 mM CF, 10 mM Tris, pH 7.4) for 30 min at room temperature, subjected to freeze-thaw cycles (7 times) and extrusions (15 times) through a polycarbonate membrane (pore size 100 nm). Extravesicular components were removed by size exclusion chromatography (NAP-25 column Sephadex G-25 DNA grade) with 10 mM Hepes, 107 mM NaCl, pH 7.4 or 10 mM Hepes, 107 mM NaCl, pH 7.4. Phospholipid concentration was calculated by the Stewart assay. […]
Vesicles stock solutions (5-10 µL) were diluted with the corresponding buffer in a disposable plastic cuvette and gently stirred (total volume 2000 µL, final lipid concentration 13 µM). […] Fluorescence intensities were normalized to fractional emission as: I(t) = (It −I0)/(I∞ −I0) [formula]
Where I0 = It before POM addition and […] = I∞ after lysis. For Hill analysis, It before lysis was defined as transport activity, Y, and plotted against POM concentration, c, and fitted to the Hill equation (2), to afford the activity in absence of POM, Y0, the maximal activity, Ymax, the concentration needed to achieve 50 % of maximal activity, EC50, and the Hill coefficient, n. Y = Y0 + (Ymax −Y0)/(1 + (((EC50)/(c)))^n) [formula]
In the transport measurements, where different carriers (POMs) are tested with the same cargo, the activator efficiency (E) is determined by their capacity to transport the impermeable cargo to the intravesicular region and is characterized by Ymax, its maximal activity, and EC50, the effective activator concentration. An ideal carrier reaches high Ymax at low EC50. To count both factors, the activator efficiency is defined as: E = Ymax (pEC50)/(f) [formula] were pEC50 is the negative logarithm of the EC50, and fa scaling factor, which was set to 20.6 to calibrate the highest (previously known) activation efficiency, E, as 10.
The capability of POMs to act as membrane carriers was explored first in large unilamellar vesicles (LUVs), loaded with carboxyfluorescein (CF). We selected […] representative cationic peptides, heptaarginine (heptaArg), heptalysine (heptaLys), protamine, and polyarginine (polyArg), as test cargos. Inside the LUVs, the CF dye was encapsulated at self-quenching concentrations. With a suitable carrier, heptaArg can be taken up into the vesicles, bind with entrapped CF, and shuttle back to the exterior, spreading the previously quenched CF, and thereby restoring its fluorescence (Fig. 3). In the time-resolved fluorescence experiments, to test whether a POM acts as molecular carrier, the CF emission was continuously monitored during the addition of the inorganic carrier (t = 60 s) and after injection the impermeable heptaArg (t = 120 s). At the end of the experiment (t = 600 s), the surfactant Triton X-100 was added to release all the entrapped CF and allow normalization of the intensity data (Fig. 4a).

[2] = tested on: oligopeptide (heptaArg, protamine, polyArg or heptaLys); assay: Isothermal titration calorimetry, POM-cargo interaction (summary statement); format: binding; conditions: ITC, POM and cargos
Experimental: All experiments were performed with a VP-ITC MicroCalorimeter from MicroCal, Int,. at atmospheric pressure and 298.15 K. Solutions were degassed and thermostatic prior the titration experiments in a ThermoVac accessory. A constant volume of POM ([PVW11]^4- or [SiMoW11]^4-) (10 µL per injection) was injected into the oligopeptide solution (heptaArg, protamine, polyArg or heptaLys) in 10 mM Mes, pH 5.5 to determine the apparent binding affinity of [PVW11]^4- and [SiMoW11]^4- with the oligopeptides. Dilution heats were determined by titration of the POM into buffer and subtracted from the reaction heat. The neat reaction heat was fitted with Origin 7.0 software by using the "one-set-of-sites" model to obtain the complex stability constant (Ka) and molar reaction enthalpy (ΔH°). The free energy (ΔG°) and entropy changes (ΔS°) were obtained according to the relation: ΔG° = - R TInKa = ΔH°-TΔS°.
To affect membrane transport, any carrier needs to display an affinity towards the cargo as well as towards the lipid bilayer. Accordingly, the interaction between [PVW11]^4- and [SiMoW11]^4- and the cargos was analyzed by isothermal titration calorimetry (ITC). […] The strong but reversible intermolecular interactions between the low-charged POMs and the cationic peptides established by ITC present an interesting finding. […]

[3] = U-tube transport experiments (CF transport through chloroform layer); conditions: CF 100 µM, POM 50 µM, heptaArg 10 µM
Experimental: The U-tubes were house-made, similar to those of Rebek and Matile consisting in a small beaker with a central glass barrier, separating the two aqueous layers, cis (sampling phase) and trans (receiving phase), but allowing an interface chloroform layer below the cis and trans phases. 3 mL CHCl3 are placed into the U-tube and 1 mL of the cis (combinations of carrier (POM), cargo (heptaArg) and CF in buffer) and trans (1 mL buffer) phases were added. The organic phase was stirred at 700 rpm at room temperature. Aliquots (25 µL) from the trans phase were taken at different times, 400 µL of buffer were added and measured by fluorescence.
In the U-tube experiments, the trans phase contained only buffer, and the cis phase is loaded with combinations of CF, carrier (POM) and cargo (heptaArg). Aliquots of the trans phase are taken and evaluated by fluorescence at different times. The trans phase is initially (t= 0) nonfluorescent, but the transport of CF from the cis phase through the chloroform barrier leads to a fluorescence signal for successful transport. […] In the ternary mixture, however, as expected, highly efficient transport is observed. This is consistent with the transport of a POM•heptaArg•CF complex through the organic phase. […]

[4] = EYPC (zwitterionic), 13 µM phospholipids, 10 µM heptaLys
[5] = EYPC (zwitterionic), 13 µM phospholipids, 10 µM heptaLys, read-out: EC50
[6] = EYPC vesicles, 0.1 µM polyArg, neutral pH 7.4
[7] = EYPC vesicles, 0.1 µM polyArg, neutral pH 7.4, read-out: PolyArg EC50
[8] = EYPC vesicles, 1 µM protamine, neutral pH 7.4
[9] = EYPC vesicles, 1 µM protamine, neutral pH 7.4, read-out: Protamine EC50
[10] = EYPC vesicles, 10 µM heptaArg, neutral pH 7.4, E = Ymax(pEC50/f), f = 20.6
[11] = EYPC vesicles, 10 µM heptaArg, neutral pH 7.4, read-out: HeptaArg EC50
[12] = EYPC vesicles, 0.1 µM polyArg, acidic pH 5.5
[13] = EYPC vesicles, 1 µM Protamine, acidic pH 5.5

Substance	E (activation efficiency) [1, 4]	Ymax [1, 4] [%]	EC50 [1, 5] [µM]	PolyArg E (activation efficiency) [1, 6]	PolyArg Ymax [1, 6] [%]	EC50 [1, 7] [µM]	Protamine E (activation efficiency) [1, 8]	Protamine Ymax [1, 8] [%]	EC50 [1, 9] [µM]	HeptaArg E (activation efficiency) [1, 10]	EC50 [1, 11]	cargo transport in CF-loaded vesicles (qualitative) [1]	onset for transport activity (carrier concentration) [1]	supramolecular interactions with the cargos (affinity, order of magnitude) [2]	carrier transport through hydrophobic bulk phase (U-tube) [3]	further results
K4[α-P^VV^VW^VI11O40]·4H2O [[PVW11]^4-]	4.3	62	38	8.2	88	12	5.9	88	41	5.3	49 µM	triggered the desired increase in fluorescence characteristic for cargo transport	around 1 µM	~10^7 M^-1	can seize and transport a hydrophilic cargo even through a hydrophobic bulk phase	–
K4[α-Si^IVMo^VIW^VI11O40]·24H2O [[SiMoW11]^4-]	4.4	54	22	8.6	94	13	6.0	72	19	5.7	16.5 µM and 17 µM	triggered the desired increase in fluorescence characteristic for cargo transport	around 1 µM	~10^7 M^-1	can seize and transport a hydrophilic cargo even through a hydrophobic bulk phase	PolyArg E (activation efficiency) [1, 12]: 9.7; PolyArg Ymax [1, 12]: 86%; EC50 ([1]; EYPC vesicles, 0.1 µM polyArg, acidic pH 5.5, read-out: PolyArg EC50): 5 µM; Protamine E (activation efficiency) [1, 13]: 7.3; Protamine Ymax [1, 13]: 80%; EC50 ([1]; EYPC vesicles, 1 µM Protamine, acidic pH 5.5, read-out: Protamine EC50): 14 µM; HeptaArg E (activation efficiency) ([1]; EYPC vesicles, 10 µM heptaArg, acidic pH 5.5): 6.6; HeptaArg Ymax ([1]; EYPC vesicles, 10 µM heptaArg, acidic pH 5.5 (10 mM Mes, 107 mM NaCl)): 66%; HeptaArg Ymax ([1]; EYPC vesicles, 10 µM heptaArg, neutral pH 7.4): 66%

Reference: EP4483904A1, “POLYOXOMETALATES AS MEMBRANE CARRIERS” (Universität Wien, priority 2023, dated 2025)
